We go through ten compounds from patent US11512053B2, “Arginine methyltransferase inhibitors and uses thereof” (priority 2013, dated 2022).

The target of assay [1] is full-length human PRMT1 isoform 1 (GST-tagged) (Homo sapiens, UniProt Q99873). Put plainly: PRMT1 Biochemical Assay (3H-SAM Flashplate, peptide substrate). A digest of the protocol:
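GST-tagged full-length PRMT1 from baculovirus-infected cells, preincubated 30 min at room temperature with compound in 20 mM Bicine pH 7.6, TCEP, BSG, Tween 20. Reaction started with 3H-SAM plus biotinylated peptide, stopped with 300 uM unlabelled SAM. Streptavidin Flashplate capture and scintillation counting; % inhibition curve-fitted for IC50.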

The target of assay [2] is full-length human PRMT8 isoform 1 (Homo sapiens, UniProt Q9NR22). Put plainly: PRMT8 Biochemical Assay (3H-SAM Flashplate, peptide substrate). As to conditions: read-out: Biochemical IC50 PRMT8. A digest of the protocol:
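Full-length human PRMT8 (1.5 nM, E. coli-expressed, GST removed) preincubated 30 min at room temperature with compound, then reacted with 50 nM 3H-SAM plus 550 nM cold SAM and 150 nM biotinylated H4 31-45 peptide in 20 mM Bicine pH 7.6, 1 mM TCEP, 0.005% BSG, 0.002% Tween 20, 2% DMSO. Quenched with 400 uM cold SAM; labelled peptide captured on streptavidin Flashplate, % inhibition versus 1 mM SAH and DMSO controls fitted to 4- or 3-parameter curve.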

The mark [3] stands for this setting: single experiment or average of multiple experiments.

SMILES strings stand for the structures. Where two headings read alike, the source gives them in different places. Bounds are passed on as bounds.

As usually defined, the IC50 is the concentration at which inhibition is half-maximal.

full-length human PRMT1 isoform 1 (GST-tagged), sequence (Q99873 with tags, fused parts or gaps): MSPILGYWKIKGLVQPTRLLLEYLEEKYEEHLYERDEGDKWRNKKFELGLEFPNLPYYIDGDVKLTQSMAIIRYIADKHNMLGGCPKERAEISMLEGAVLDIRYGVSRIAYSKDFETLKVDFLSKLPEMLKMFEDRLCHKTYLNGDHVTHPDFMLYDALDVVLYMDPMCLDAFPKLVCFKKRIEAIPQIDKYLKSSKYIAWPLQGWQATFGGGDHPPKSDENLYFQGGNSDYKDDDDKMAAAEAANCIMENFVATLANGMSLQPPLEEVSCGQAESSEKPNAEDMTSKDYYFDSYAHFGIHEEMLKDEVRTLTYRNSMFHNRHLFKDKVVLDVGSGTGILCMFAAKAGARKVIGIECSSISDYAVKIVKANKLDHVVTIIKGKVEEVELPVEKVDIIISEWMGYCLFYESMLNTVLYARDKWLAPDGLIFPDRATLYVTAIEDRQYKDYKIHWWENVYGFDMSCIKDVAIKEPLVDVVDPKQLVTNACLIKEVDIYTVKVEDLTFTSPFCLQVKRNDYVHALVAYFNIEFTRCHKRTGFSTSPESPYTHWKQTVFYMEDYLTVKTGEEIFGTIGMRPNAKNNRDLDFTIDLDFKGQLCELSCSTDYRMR
full-length human PRMT8 isoform 1, sequence (Q9NR22 whole entry, canonical isoform): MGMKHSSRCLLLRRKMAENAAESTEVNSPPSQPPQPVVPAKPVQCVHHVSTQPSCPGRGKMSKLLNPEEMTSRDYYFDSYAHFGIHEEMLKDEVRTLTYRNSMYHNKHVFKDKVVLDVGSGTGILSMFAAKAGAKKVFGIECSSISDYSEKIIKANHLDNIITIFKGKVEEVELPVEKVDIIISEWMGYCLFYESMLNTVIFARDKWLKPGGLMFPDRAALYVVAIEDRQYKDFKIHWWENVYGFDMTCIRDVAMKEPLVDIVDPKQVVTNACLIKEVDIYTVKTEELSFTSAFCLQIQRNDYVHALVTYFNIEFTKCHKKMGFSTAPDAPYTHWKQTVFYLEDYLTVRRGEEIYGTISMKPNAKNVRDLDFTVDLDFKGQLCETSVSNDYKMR

Take `CNCCN(C)Cc1c[nH]nc1[C@H]1CC[C@H](C(=O)N(C)CCOc2ccccc2)CC1` [Compound 258]: the half-maximal inhibitory concentration (IC50) is under 100 nM in assay [1], 7.59 nM in assay [1] (setting [3]), under 100 nM in assay [2] and 10.8 nM in assay [2] (setting [3]).
`CNCCN(C)Cc1c[nH]nc1[C@H]1CC[C@@H](C(=O)N(C)CCOc2ccccc2)CC1` [Compound 259]: the IC50 in assay [1] is under 100 nM; in assay [1] (setting [3]), 15.8 nM; in assay [2], under 100 nM; in assay [2] (setting [3]), 17.1 nM.
In the case of `CNCCN(C)Cc1c[nH]nc1[C@H]1CC[C@@]2(CCC(C)(C)O2)CC1` [Compound 260], the IC50 in assay [1] was under 100 nM; in assay [1] (setting [3]) it was 20.2 nM; in assay [2], under 100 nM; in assay [2] (setting [3]) it was 37.3 nM.
Take `CNCCN(C)Cc1c[nH]nc1[C@H]1CC[C@@H](N(CCOC)C(=O)CCC(C)C)CC1` [Compound 261]: the IC50 is under 100 nM in assay [1], 13 nM in assay [1] (setting [3]), under 100 nM in assay [2] and 16.7 nM in assay [2] (setting [3]).
In the case of `CNCCN(C)Cc1c[nH]nc1C1CCC(C)(C)[C@H](C(=O)NCC(C)C)C1` (stereo partly shown) [Compound 262], the 50% inhibitory concentration (IC50) was under 100 nM in assay [1], 33.7 nM in assay [1] (setting [3]), under 100 nM in assay [2] and 72.4 nM in assay [2] (setting [3]).
On to `CNCCN(C)Cc1c[nH]nc1C1CCC(C)(C)[C@@H](C(=O)NCCC(C)C)C1` (stereo partly drawn) [Compound 263, (1S)-2,2-dimethyl-5-[4-({methyl[2-(methylamino)ethyl]amino}methyl)-1H-pyrazol-3-yl]-N-(3-methylbutyl)cyclohexane-1-carboxamide], for which the concentration for half-maximal inhibition (IC50) in assay [1] was under 100 nM; in assay [1] (setting [3]), 19.2 nM; in assay [2] it was under 100 nM; in assay [2] (setting [3]), 35.1 nM.
For `CNCCN(C)Cc1c[nH]nc1C1CCC(C)(C)[C@H](C(=O)NCCOC)C1` (stereo partly shown) [Compound 264], the IC50 in assay [1] was under 100 nM; in assay [1] (setting [3]), 78 nM; in assay [2], 101 to 1000 nM; in assay [2] (setting [3]) it was 181 nM.
As for `CNCCN(C)Cc1c[nH]nc1C1CCC(C)(C)[C@H](C(=O)NCCCOC)C1` (stereo partly shown) [Compound 265], the half-maximal inhibitory concentration (IC50) in assay [1] was under 100 nM; in assay [1] (setting [3]), 58.8 nM; in assay [2], 101 to 1000 nM; in assay [2] (setting [3]), 171 nM.
As for `CNCCN(C)Cc1c[nH]nc1C1CCC(C)(C)[C@@H](C(=O)NCC(C)C)C1` (stereo partly shown) [Compound 266], the IC50 in assay [1] was under 100 nM; in assay [1] (setting [3]) it was 19.3 nM; in assay [2], under 100 nM; in assay [2] (setting [3]), 63.1 nM.
Turning to `CNCCN(C)Cc1c[nH]nc1C1C[C@H](C(=O)N(C)CC(C)C)C(C)(C)[C@H](C(=O)N(C)CC(C)C)C1` (stereo partly shown) [Compound 267], the 50% inhibitory concentration (IC50) in assay [1] was 3010 to 10000 nM; in assay [1] (setting [3]), 3500 nM; in assay [2] it was 3010 to 10000 nM; in assay [2] (setting [3]), 5910 nM.
